Experimental data reported in patent publication US20250090699A1, “FAP TARGETING CYCLIC PEPTIDES AND CONJUGATES THEREOF” (Novartis AG, priority 2023, published 2025).
Structures can show the parent of a compound that is named as a salt. Starred links: 1 amine or outer side, 2 acyl side, 3 side chain; linkers in the order of their positions; H or OH if unused. Non-standard residues stand in square brackets, D forms with d. Residues, ends and D or L forms follow the SMILES beside them. Groups on a side chain read outwards from the residue. Primed or numbered codes have the meaning given here. *: point of attachment. F(4OEtNHDOTA-Ga) = gallium complex of (S)-2,2',2''-(10-(2-((2-(4-(2-amino-2-carboxyethyl)phenoxy)ethyl)amino)-2-oxoethyl)-1,4,7,10-tetraazacyclododecane-1,4,7-triyl)triacetic acid (Phe with 4-O-ethylamino-DOTA-Ga), O=C([O-])CN1CCN(CC(=O)[O-])CCN(CC(=O)NCCOc2ccc(C[C@H](N[*:1])C(=O)[*:2])cc2)CCN(CC(=O)[O-])CC1.[Ga+3]; F(4amPEG2NHDOTA-Lu)″ = lutetium (S)-2,2',2''-(10-(1-(4-(2-amino-2-carboxyethyl)phenyl)-3,12-dioxo-5,8-dioxa-2,11-diazatridecan-13-yl)-1,4,7,10-tetraazacyclododecane-1,4,7-triyl)triacetic acid, O=C([O-])CN1CCN(CC(=O)[O-])CCN(CC(=O)NCCOCCOCC(=O)NCc2ccc(C[C@H](N[*:1])C(=O)[*:2])cc2)CCN(CC(=O)[O-])CC1.[Lu+3]; K(COpipzaa) = N6-(4-(carboxymethyl)piperazine-1-carbonyl)-L-lysine, O=C(NCCCC[C@H](N[*:1])C(=O)[*:2])N1CCN(CC(=O)[*:3])CC1; X4 = 4‑(carboxymethyl)piperazine‑1‑carbonyl, O=C(O)CN1CCN(C(=O)*)CC1; hS(Pr) = O-propyl-L-homoserine, CCCOCC[C@H](N[*:1])C(=O)[*:2]; NOTA = O=C(O)CN1CCN(CC(=O)O)CCN(CC(=O)*)CC1; Phe(4-CH2NH2) = NCc1ccc(C[C@H](N)C(=O)O)cc1; Piperazinyl(4-CH2COOH) = O=C(O)CN1CCN(*)CC1; AEF = NCCOc1ccc(C[C@H](N)C(=O)O)cc1; NMeF = CN[C@@H](Cc1ccccc1)C(=O)O; αMeD = C[C@](N)(CC(=O)O)C(=O)O; Aoc(2) = CCCCCC[C@H](N)C(=O)O; Ahp(2) = CCCCC[C@H](N)C(=O)O; hSer = N[C@@H](CCO)C(=O)O; AEEA = NCCOCCOCC(=O)O; CO = O=C([*:1])[*:2]

Tests used:
mouse FAP [1] = biological target: T1, mouse FAP (Mus musculus, UniProt P97321); experiment: Surface plasmon resonance (SPR) for peptide affinity, mouse FAP; assay type: binding
T1 construct: biotinylated His, Avi tag, mouse FAP (26-761, FAP-M82Q5); His; Avi tag (biotinylated); purchased AcroBiosystems FAP-M82Q5
T1 sequence (P97321 26-761): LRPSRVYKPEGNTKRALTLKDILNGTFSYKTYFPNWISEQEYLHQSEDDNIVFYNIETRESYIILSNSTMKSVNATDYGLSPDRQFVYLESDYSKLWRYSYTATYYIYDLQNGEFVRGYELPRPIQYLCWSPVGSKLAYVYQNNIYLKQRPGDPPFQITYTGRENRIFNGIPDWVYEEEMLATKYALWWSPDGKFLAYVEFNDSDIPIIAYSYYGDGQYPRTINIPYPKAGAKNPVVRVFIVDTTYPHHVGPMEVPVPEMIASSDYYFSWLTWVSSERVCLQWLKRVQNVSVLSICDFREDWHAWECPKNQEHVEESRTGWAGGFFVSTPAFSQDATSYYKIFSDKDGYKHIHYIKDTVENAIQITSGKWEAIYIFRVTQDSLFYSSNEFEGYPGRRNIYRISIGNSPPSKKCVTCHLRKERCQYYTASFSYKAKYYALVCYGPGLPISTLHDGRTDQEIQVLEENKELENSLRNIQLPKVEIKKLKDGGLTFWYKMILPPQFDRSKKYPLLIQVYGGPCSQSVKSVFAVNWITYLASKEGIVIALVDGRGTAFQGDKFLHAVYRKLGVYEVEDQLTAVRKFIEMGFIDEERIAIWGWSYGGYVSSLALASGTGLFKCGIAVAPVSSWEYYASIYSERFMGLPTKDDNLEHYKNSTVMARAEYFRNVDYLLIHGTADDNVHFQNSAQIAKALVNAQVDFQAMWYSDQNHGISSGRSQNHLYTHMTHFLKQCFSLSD
Method in brief: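 KD values come from a 1:1 kinetic fit of single-cycle SPR data: 8 peptide concentrations, 25 °C, 30 μL/min, HEPES-buffered saline pH 7.6 with 2% DMSO. Targets were His/Avi-tagged human (26-760) or mouse (26-761) FAP, amine-coupled to CM5 or held on a CAPture chip.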

human FAP = biological target: T2, human FAP (Homo sapiens, UniProt Q12884); experiment: Enzymatic FAP competition assay (Z-Gly-Pro-AMC fluorescence), human FAP; assay type: biochemical; conditions: read-out: h. FAP, Enz., IC50
T2 construct: the biotinylated His, Avi tag, human FAP (26-760, FAP-H82Q6); His; Avi tag (biotinylated); purchased AcroBiosystems FAP-H82Q6
T2 sequence (Q12884 26-760): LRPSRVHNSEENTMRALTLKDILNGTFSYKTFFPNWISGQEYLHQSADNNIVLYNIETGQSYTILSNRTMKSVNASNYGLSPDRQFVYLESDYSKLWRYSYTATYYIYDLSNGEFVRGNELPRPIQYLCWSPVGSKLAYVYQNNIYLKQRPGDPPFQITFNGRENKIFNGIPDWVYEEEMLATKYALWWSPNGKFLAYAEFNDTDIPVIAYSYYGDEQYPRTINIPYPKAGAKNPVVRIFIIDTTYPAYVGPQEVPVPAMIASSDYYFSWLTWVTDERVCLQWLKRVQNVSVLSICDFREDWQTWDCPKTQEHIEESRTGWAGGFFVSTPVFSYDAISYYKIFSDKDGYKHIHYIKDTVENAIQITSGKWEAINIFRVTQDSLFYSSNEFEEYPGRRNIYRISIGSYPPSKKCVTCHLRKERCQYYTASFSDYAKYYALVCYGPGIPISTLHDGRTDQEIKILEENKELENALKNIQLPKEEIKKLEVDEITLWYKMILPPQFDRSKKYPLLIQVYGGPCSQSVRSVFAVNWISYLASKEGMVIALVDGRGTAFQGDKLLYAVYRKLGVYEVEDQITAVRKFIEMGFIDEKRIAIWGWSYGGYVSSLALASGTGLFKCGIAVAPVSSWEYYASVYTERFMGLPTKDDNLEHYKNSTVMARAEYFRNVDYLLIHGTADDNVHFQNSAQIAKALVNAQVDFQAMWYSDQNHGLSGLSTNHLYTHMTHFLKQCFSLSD
Method in brief: (§1)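 IC50 values come from curve fitting of duplicate % inhibition data on AMC fluorescence (ex 380, em 460 nm) after 4 h at 22-24° C with 50 μM Z-Gly-Pro-AMC. Beforehand, peptides up to 1 μM (14 levels) sat 24 h with 0.01 nM human (26-760) or mouse (26-761) tagged FAP in phosphate buffer pH 7.5, NaCl, Tween20, 1% DMSO.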

mouse FAP [2] = biological target: T1, mouse FAP; experiment: Enzymatic FAP competition assay (Z-Gly-Pro-AMC fluorescence), mouse FAP; assay type: biochemical; conditions: read-out: m. FAP, Enz., IC50
Method in brief: as §1

Row | Molecule | Kd (mouse FAP [1]) | IC50 (human FAP) | IC50 (mouse FAP [2])
1 | CCCCC[C@@H]1NC(=O)[C@H](Cc2ccc(O)cc2)NC(=O)[C@H](Cc2ccccc2)N(C)C(=O)[C@H](CCC(=O)O)NC(=O)[C@H](CCCCN)NC(=O)[C@H]2CCCN2C(=O)[C@H](CC(=O)O)NC(=O)[C@H](Cc2ccc(O)cc2)NC(=O)CNC(=O)[C@H](Cc2c[nH]c3ccccc23)NC1=O [Example A21, Lys-Glu-NMePhe-Tyr-Ahp-Trp-Gly-Tyr-Asp-D-Pro, TFA salt] (cyclo([Ahp(2)]WGYD[dP]KE[NMeF]Y)) | 15 nM | 5.7 nM | 14 nM
2 | CCCCCC[C@@H]1NC(=O)[C@H](Cc2ccc(CNC(=O)COCCOCCNC(=O)CN3CCN(CC(=O)O)CCN(CC(=O)O)CC3)cc2)NC(=O)[C@H](Cc2ccccc2)N(C)C(=O)CNC(=O)CNC(=O)[C@H]2CCCN2C(=O)[C@H](CC(=O)O)NC(=O)[C@H](CCCCNC(=O)N2CCN(CC(=O)O)CC2)NC(=O)CNC(=O)[C@H](Cc2c[nH]c3ccccc23)NC1=O [Example B40, Gly-Gly-NMePhe-F(4amPEG2NHNOTA)-Aoc-Trp-Gly-K(COpipzaa)-Asp-D-Pro] (cyclo(GG[NMeF][Phe(4-CH2NH2)]([AEEA-NOTA])[Aoc(2)]WGK([CO-Piperazinyl(4-CH2COOH)])D[dP])) | < 0.024 nM | 0.006 nM | 0.012 nM
3 | Gly-Gly-NMePhe-F(4OEtNHDOTA-Ga)-Ahp-Trp-Gly-K(COpipzaa)-Asp-D-Pro (cyclo(GG[NMeF][F(4OEtNHDOTA-Ga)][Ahp(2)]WG[K(COpipzaa)]D[dP]); also: Ga complex of DOTA) [Example C50] | < 0.02 nM | 0.046 nM | 0.052 nM
4 | CCCCC[C@@H]1NC(=O)[C@H](Cc2ccc(O)cc2)NC(=O)[C@H](Cc2ccccc2)N(C)C(=O)CNC(=O)[C@H](CCCCN)NC(=O)[C@H]2CCCN2C(=O)[C@H](CC(=O)O)NC(=O)[C@H](Cc2ccc(O)cc2)NC(=O)CNC(=O)[C@H](Cc2c[nH]c3ccccc23)NC1=O [Example A53, Lys-Gly-NMePhe-Tyr-Ahp-Trp-Gly-Tyr-Asp-D-Pro, TFA salt] (cyclo([Ahp(2)]WGYD[dP]KG[NMeF]Y)) | 0.72 nM | 0.4 nM | 1.3 nM
5 | CCCCC[C@@H]1NC(=O)[C@H](Cc2ccc(OCCN)cc2)NC(=O)[C@H](Cc2ccccc2)N(C)C(=O)CNC(=O)[C@H](CCO)NC(=O)[C@H]2CCCN2C(=O)[C@H](CC(=O)O)NC(=O)[C@H](Cc2ccc(O)cc2)NC(=O)CNC(=O)[C@H](Cc2c[nH]c3ccccc23)NC1=O [Example A47, hSer-Gly-NMePhe-F(4OEtNH2)-Ahp-Trp-Gly-Tyr-Asp-D-Pro, TFA salt] (cyclo([AEF][Ahp(2)]WGYD[dP][hSer]G[NMeF])) | 0.48 nM | 0.181 nM | 0.6 nM
6 | Pro-Gly-NMePhe-F(4amPEG2NHDOTA-Lu)-hS(Pr)-Trp-Gly-K(COpipzaa)-Asp-D-Pro (cyclo(PG[NMeF][F(4amPEG2NHDOTA-Lu)″][hS(Pr)]WGK(X4)D[dP])) [Example C20] | < 0.031 nM | 0.016 nM | 0.03 nM
7 | CCCCC[C@@H]1NC(=O)[C@H](Cc2ccc(O)cc2)NC(=O)[C@H](Cc2ccccc2)N(C)C(=O)CNC(=O)CNC(=O)[C@H]2CCCN2C(=O)[C@](C)(CC(=O)O)NC(=O)[C@H](Cc2ccc(O)cc2)NC(=O)CNC(=O)[C@H](Cc2c[nH]c3ccccc23)NC1=O [Example A72, Gly-Gly-NMePhe-Tyr-Ahp-Trp-Gly-Tyr-aMeD-D-Pro] (cyclo([Ahp(2)]WGY[αMeD][dP]GG[NMeF]Y)) | > 6000 nM | 237 nM | 1000 nM
